This passage reports GI50 and TGI results from PubChem BioAssay (NCI).

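Dose response: 5 concentrations. Exposure: 48 h. Format: 96-well plates. Endpoint: linear interpolation; highest concentration if not reached. The concentration for 50% growth inhibition is given as GI50. The concentration for full growth arrest is given as TGI.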

The GI50 is the concentration giving 50% growth inhibition. What is called TGI is the concentration at which net growth stops. Higher therefore signals lower sensitivity of the cells.

Among the test systems are A549 NSCLC; CAKI-1 renal; EKVX NSCLC; MOLT-4 leukemia; OVCAR-3 ovarian; SF-539 CNS; SNB-19 CNS; SW-620 colon; U251 CNS; UACC-62 melanoma.
Holding throughout (assay): DTP human tumour cell line panel, 48 h

Consider `COc1ccc(N(C)c2nc(C)nc3ccccc23)cc1`, for which the GI50 in the assay on A549 NSCLC, with CAKI-1 renal, in the assay with EKVX NSCLC, with MOLT-4 leukemia, with OVCAR-3 ovarian and in the assay with SF-539 CNS was less than 0.01 µM in each case. For the same compound, the GI50 in the assay on SNB-19 CNS, in the assay on SW-620 colon, with U251 CNS and with UACC-62 melanoma was less than 0.01 µM each time. For the same compound, the TGI with A549 NSCLC is more than 100 µM; in the assay with CAKI-1 renal, 46.4 µM; in the assay with EKVX NSCLC, 40.8 µM; with MOLT-4 leukemia, more than 100 µM; with OVCAR-3 ovarian, less than 0.01 µM; with SF-539 CNS, more than 100 µM. Also, the TGI in the assay on SNB-19 CNS was more than 100 µM; in the assay with SW-620 colon, more than 100 µM; with U251 CNS, more than 100 µM; with UACC-62 melanoma, more than 49.6 µM.
In the case of `O=c1c(Cl)nnc2sc3ccccc3n12`, the GI50 is 39.7 µM in the assay on A549 NSCLC; 0.813 µM in the assay on CAKI-1 renal; 24.2 µM in the assay with EKVX NSCLC; 19.6 µM with MOLT-4 leukemia; 34.4 µM with OVCAR-3 ovarian; 37.5 µM in the assay on SF-539 CNS. Also, the GI50 with SNB-19 CNS is 77.5 µM; in the assay on SW-620 colon, 47.7 µM; with U251 CNS, 30.9 µM; with UACC-62 melanoma, 40.8 µM. Besides, the concentration for total growth inhibition (TGI) with A549 NSCLC was more than 100 µM; in the assay with CAKI-1 renal, 6.9 µM; with EKVX NSCLC it was more than 100 µM; in the assay with MOLT-4 leukemia, more than 100 µM; in the assay with OVCAR-3 ovarian, more than 100 µM; in the assay with SF-539 CNS, more than 100 µM. For the same compound, the TGI in the assay on SNB-19 CNS is more than 100 µM; in the assay on SW-620 colon, more than 100 µM; with U251 CNS, 85.3 µM; with UACC-62 melanoma, more than 100 µM.
In the case of `O=C1C2CC(Cl)C(SSC3CC4C(=O)N(SC(Cl)(Cl)C(Cl)Cl)C(=O)C4CC3Cl)CC2C(=O)N1SC(Cl)(Cl)C(Cl)Cl` (stereo not given), the TGI in the assay with A549 NSCLC is 28.3 µM; in the assay on CAKI-1 renal it was 6.7 µM; in the assay on EKVX NSCLC, 15.5 µM; in the assay with MOLT-4 leukemia, 1.35 µM; with OVCAR-3 ovarian, 5.07 µM; in the assay with SF-539 CNS it was 6.89 µM. In addition, the TGI with SNB-19 CNS was determined as 12.7 µM; with SW-620 colon it was 5.09 µM; in the assay on U251 CNS it was 3.75 µM; in the assay with UACC-62 melanoma, 4.49 µM.
`S=c1[nH]nc(COc2ccc(Cl)cc2)o1`: the TGI in the assay on A549 NSCLC, in the assay with CAKI-1 renal, in the assay on EKVX NSCLC, in the assay with MOLT-4 leukemia, in the assay with OVCAR-3 ovarian and with SF-539 CNS was more than 100 µM each time. The TGI in the assay with SNB-19 CNS is more than 100 µM; in the assay with SW-620 colon, 29.8 µM; with U251 CNS, more than 100 µM; in the assay with UACC-62 melanoma, more than 100 µM.
As to `O=C(Nc1n[nH]c2nc(-c3ccco3)c(Br)cc12)C1CC1`, the GI50 in the assay on A549 NSCLC, with CAKI-1 renal, in the assay on EKVX NSCLC, with MOLT-4 leukemia, in the assay on OVCAR-3 ovarian and in the assay with SF-539 CNS was more than 25 µM each time. Further, the GI50 in the assay with SNB-19 CNS, with SW-620 colon, with U251 CNS and in the assay on UACC-62 melanoma was more than 25 µM in each case. The TGI with A549 NSCLC, in the assay on CAKI-1 renal, in the assay with EKVX NSCLC, in the assay with MOLT-4 leukemia, with OVCAR-3 ovarian and with SF-539 CNS was more than 25 µM each time. Besides, the TGI in the assay with SNB-19 CNS, with SW-620 colon, in the assay on U251 CNS and in the assay with UACC-62 melanoma was more than 25 µM each time.
On to `Nc1cccc2c1C(=O)N(C1CCC(=O)NC1=O)C2=O` (stereo not given), for which the GI50 in the assay with A549 NSCLC, in the assay with CAKI-1 renal, with EKVX NSCLC, in the assay on MOLT-4 leukemia, in the assay on OVCAR-3 ovarian and in the assay with SF-539 CNS was more than 100 µM in each case. The GI50 with SNB-19 CNS, with SW-620 colon, in the assay on U251 CNS and in the assay on UACC-62 melanoma was more than 100 µM in each case. Besides, the TGI in the assay on A549 NSCLC, in the assay with CAKI-1 renal, with EKVX NSCLC, in the assay with MOLT-4 leukemia, in the assay on OVCAR-3 ovarian and in the assay on SF-539 CNS was more than 100 µM each time. Moreover, the TGI with SNB-19 CNS, in the assay with SW-620 colon, with U251 CNS and in the assay with UACC-62 melanoma was more than 100 µM each time.
Consider `O=S(=O)(c1ccc(NC(=S)N/N=C/c2ccccc2O)cc1)N1CCCCC1`, for which the TGI in the assay on A549 NSCLC is more than 31.7 µM; in the assay on CAKI-1 renal it was 0.671 µM; in the assay on EKVX NSCLC, 76.2 µM; with MOLT-4 leukemia, 2.13 µM; with OVCAR-3 ovarian it was 6.34 µM; with SF-539 CNS, more than 40.9 µM. Moreover, the TGI was more than 100 µM in the assay with SNB-19 CNS, 21 µM in the assay with SW-620 colon, 16.8 µM with U251 CNS and 0.262 µM in the assay on UACC-62 melanoma.
`COc1cc(-c2cc(C(=O)N3CCN(C(=O)c4ccccc4NCc4ccco4)CC3)nc3cc(-c4ccccc4)nn23)cc(OC)c1OC`: the GI50 was 2.13 µM in the assay on A549 NSCLC; 1.34 µM in the assay with CAKI-1 renal; 5.5 µM with EKVX NSCLC; 11.2 µM with MOLT-4 leukemia; 1.47 µM in the assay with OVCAR-3 ovarian; 3.11 µM in the assay on SF-539 CNS. Besides, the GI50 in the assay with SNB-19 CNS is 7.87 µM; with SW-620 colon it was 2.62 µM; in the assay with U251 CNS, 3.85 µM; with UACC-62 melanoma, 4.71 µM. Besides, the TGI in the assay on A549 NSCLC was more than 100 µM; in the assay on CAKI-1 renal, more than 100 µM; in the assay with EKVX NSCLC it was more than 100 µM; with MOLT-4 leukemia it was more than 100 µM; in the assay on OVCAR-3 ovarian, 6.27 µM; with SF-539 CNS, more than 26 µM. In addition, the TGI in the assay on SNB-19 CNS, in the assay on SW-620 colon, in the assay with U251 CNS and in the assay with UACC-62 melanoma was more than 100 µM each time.
In the case of `Cc1ccc2c(c1)NC(c1ccc(C(=O)O)cc1)c1cccn1-2` (stereo not given), the TGI with A549 NSCLC was more than 100 µM; in the assay with CAKI-1 renal it was 72.7 µM; in the assay with EKVX NSCLC it was more than 100 µM; with MOLT-4 leukemia, more than 100 µM; with OVCAR-3 ovarian, more than 100 µM; with SF-539 CNS it was more than 100 µM. Moreover, the total growth inhibition concentration (TGI) in the assay with SNB-19 CNS was 94.6 µM; in the assay with SW-620 colon it was more than 100 µM; in the assay with U251 CNS it was more than 100 µM; in the assay with UACC-62 melanoma, more than 100 µM.
In the case of `COc1ccccc1C(=O)/C=C/c1cc2cccc(OC)c2[nH]c1=O`, the GI50 with A549 NSCLC is 0.069 µM; in the assay on CAKI-1 renal, 0.0241 µM; in the assay with EKVX NSCLC it was 0.375 µM; in the assay on MOLT-4 leukemia, 0.0408 µM; in the assay on OVCAR-3 ovarian it was 0.0343 µM; in the assay on SF-539 CNS it was 0.0211 µM. Also, the GI50 in the assay on SNB-19 CNS was 0.0332 µM; in the assay with SW-620 colon, 0.0158 µM; in the assay on U251 CNS, 0.0319 µM; in the assay with UACC-62 melanoma, 0.0412 µM. Further, the TGI in the assay with A549 NSCLC was 12.6 µM; with CAKI-1 renal, 1.54 µM; with EKVX NSCLC, 3.17 µM; with MOLT-4 leukemia, 5.2 µM; with OVCAR-3 ovarian, 0.6 µM; with SF-539 CNS, 0.0848 µM. Also, the TGI in the assay on SNB-19 CNS came out at 1.47 µM; with SW-620 colon it was 1.56 µM; in the assay with U251 CNS, 1.5 µM; in the assay on UACC-62 melanoma, 1.93 µM.
With `Nc1ccn(C=C=CCO)c(=O)n1`, the GI50 in the assay with A549 NSCLC is more than 1000 µM; in the assay on CAKI-1 renal it was more than 1000 µM; in the assay on EKVX NSCLC, more than 1000 µM; in the assay with MOLT-4 leukemia, 38.8 µM; in the assay on OVCAR-3 ovarian, more than 1000 µM; in the assay with SF-539 CNS, more than 1000 µM. The GI50 in the assay on SNB-19 CNS, in the assay with SW-620 colon, in the assay with U251 CNS and in the assay with UACC-62 melanoma was more than 1000 µM each time. The TGI in the assay with A549 NSCLC, in the assay on CAKI-1 renal, in the assay with EKVX NSCLC, in the assay on MOLT-4 leukemia, with OVCAR-3 ovarian and in the assay on SF-539 CNS was more than 1000 µM throughout. The TGI in the assay on SNB-19 CNS, in the assay on SW-620 colon, with U251 CNS and in the assay on UACC-62 melanoma was more than 1000 µM throughout.
`COc1cc2c3c(n(C)c(=O)c2cc1OC)-c1cc2c(cc1/C3=C\CCCCN)OCO2`: the GI50 in the assay on A549 NSCLC was 6.26 µM; in the assay on CAKI-1 renal it was 4.41 µM; in the assay on EKVX NSCLC, 18.4 µM; in the assay on MOLT-4 leukemia, 5.78 µM; with OVCAR-3 ovarian, 16.9 µM; with SF-539 CNS, 2.83 µM. In addition, the GI50 was 23.9 µM with SNB-19 CNS, 6.36 µM in the assay with SW-620 colon, 6.04 µM in the assay with U251 CNS and 12.5 µM in the assay with UACC-62 melanoma. For the same compound, the TGI was 27.4 µM in the assay with A549 NSCLC; 17.1 µM with CAKI-1 renal; 57.2 µM in the assay with EKVX NSCLC; more than 100 µM in the assay on MOLT-4 leukemia; 33.4 µM with OVCAR-3 ovarian; 6.23 µM with SF-539 CNS. Besides, the TGI in the assay on SNB-19 CNS came out at 71.9 µM; with SW-620 colon, 24.8 µM; in the assay with U251 CNS it was 21.6 µM; with UACC-62 melanoma, 37.8 µM.
Turning to `O=[N+]([O-])c1ccc(N/N=C\c2cc(Cl)ccc2O)nc1`, the GI50 in the assay with A549 NSCLC is 2.79 µM; in the assay with CAKI-1 renal, 0.278 µM; in the assay on EKVX NSCLC it was 8.05 µM; with MOLT-4 leukemia, 0.51 µM; in the assay with OVCAR-3 ovarian it was 0.42 µM; with SF-539 CNS it was 3.02 µM. Moreover, the GI50 is 3.41 µM with SNB-19 CNS, 0.873 µM in the assay with SW-620 colon, 0.51 µM with U251 CNS and 3.18 µM with UACC-62 melanoma. Besides, the TGI with A549 NSCLC is 16.1 µM; with CAKI-1 renal, 1.07 µM; in the assay with EKVX NSCLC it was more than 100 µM; with MOLT-4 leukemia, more than 100 µM; in the assay on OVCAR-3 ovarian, 12.1 µM; with SF-539 CNS, more than 100 µM. Further, the TGI in the assay with SNB-19 CNS was more than 100 µM; in the assay on SW-620 colon it was more than 100 µM; in the assay on U251 CNS it was 12.1 µM; in the assay with UACC-62 melanoma, 34.1 µM.
